Data on 17 compounds can be found in patent US11034685B2, “Aminopyridine derivatives as TAM family kinase inhibitors” (SignalChem Lifesciences Corporation, priority 2013, dated 2021).

Some results are limits rather than exact numbers.

What all share (type): biochemical
The target of test [1] is T1, Recombinant human Tyro3 (455-end) (Homo sapiens, UniProt Q06418).
T1 construct: GST (N); made in house; host or cells: Sf9 insect cells (baculovirus)
T1 sequence (Q06418 455-890 limits assumed): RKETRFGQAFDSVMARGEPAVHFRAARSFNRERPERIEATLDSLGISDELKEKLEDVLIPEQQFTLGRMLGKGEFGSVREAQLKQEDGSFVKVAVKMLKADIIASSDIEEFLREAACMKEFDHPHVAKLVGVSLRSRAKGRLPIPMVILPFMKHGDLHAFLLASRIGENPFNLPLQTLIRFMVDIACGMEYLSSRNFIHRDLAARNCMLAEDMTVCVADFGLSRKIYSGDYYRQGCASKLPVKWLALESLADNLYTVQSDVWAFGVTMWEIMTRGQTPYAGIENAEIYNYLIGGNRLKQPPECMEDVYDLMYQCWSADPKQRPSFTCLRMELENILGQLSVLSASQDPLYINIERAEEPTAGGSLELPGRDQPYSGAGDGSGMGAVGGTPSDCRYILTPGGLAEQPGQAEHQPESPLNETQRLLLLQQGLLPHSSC
Kind of test: Kinase enzymatic activity assay ([33P]-ATP phosphate transfer), Tyro3. Conditions: inhibitory activity on Tyro3; class symbols. On the procedure: (§1) Preparation of Active Recombinant Kinase Proteins:
(§2) Recombinant human Tyro3 (455-end, the gene accession number NM_006293), human Axl (473-end, the gene accession number NM_021913) and human Mer (578-872, the gene accession number NM_006343) were independently expressed by baculovirus in Sf9 insect cells using an N-terminal GST tag. The recombinant proteins were stored at −70° C. in a medium containing 50 mM Tris-HCl, pH 7.5, 150 mM NaCl, 10 mM glutathione, 0.1 mM EDTA, 0.25 mM DTT, 0.1 mM PMSF and 25% glycerol. The recombinant proteins were aliquoted into smaller quantities after centrifugation to avoid repeated handling and multiple freeze/thaw cycles for the most favorable performance.
(§3) Preparation of Assay Reagents:
(§4) Kinase Assay Buffer: This buffer solution consisted of the following components: 25 mM MOPS, pH 7.2, 12.5 mM β-glycerol-phosphate, 25 mM MgCl2, 5 mM EGTA, 2 mM EDTA and DTT 0.25 mM which was added prior to use.
(§5) Kinase Dilution Buffer: Kinase Assay Buffer was diluted at a 1:4 ratio (5× dilution) with distilled water.
(§6) [^33P]-ATP assay cocktail: In a designated radioactive working area, a 250 μM [^33P]-ATP assay cocktail was prepared by the addition of the following components: 150 μL of 10 mM ATP stock solution, 100 μL [^33P]-ATP (1 mci/100 μL), 5.75 mL of kinase assay buffer. This solution was stored in 1 mL aliquots at −20 OC.
(§7) ATP stock solution (10 mM): The ATP stock solution was prepared by dissolving 55 mg of ATP in 10 mL of kinase assay buffer. It was stored in 200 μL aliquots at −20° C.
(§8) Active Kinase Stock Solution: The active recombinant kinase protein (0.1 μg/μL) was diluted with Kinase Dilution Buffer and the activity was assayed using a serial dilution method. The specific activity is expressed in nmoL/min/mg.
(§9) Substrates: poly(4:1 glu:tyr) is the substrate used for each kinase Tyro3, Axl and Mer: The peptide substrate was dissolved in water to give the final concentration of 1 mg/mL.
(§10) Test compound solution: Test compound was dissolved in DMSO to obtain a 10 mM solution. The assay solution was prepared by adding 5 μL of this solution to […] of 10% DMSO/water to obtain the final concentration of 50 μM.
(§11) The enzymatic activity of all three kinases was determined as follows. Using a 96-well plate, the wells were divided into three categories: Blank wells, […] and Test wells. In Test wells, 5 μL of the test compound solution and 5 μL of the substrate solution were added. In Control wells, 5 μL of 10% DMSO/water and 5 μL of the substrate solution were added. In Blank wells, 10 μL of 10% DMSO/water was added. To each well was added 10 μL of Active Kinase Stock Solution to make up the volume in each well to 20 μL. All test samples, controls and blanks were run in duplicate. The reaction was initiated by the addition of 5 μL of [^33P]-ATP assay cocktail, bringing the final volume up to 25 μL in every well. The mixture was incubated at room temperature for 30 minutes. The reaction was terminated by transferring 10 μL of the reaction mixture into a Millipore MultiScreen filter plate (cat. number MSPHN6B50). The filter plate was washed in a 1% phosphoric acid solution with constant gentle shaking for 15 minutes and this step was repeated once. After the plate was dried in air, scintillation fluid was added to each well and the radioactivity in each well in CPM was counted by a Microbeta TriLux. The corrected CPM in each test well was determined by subtracting the average value of Blank well values. Percentage of inhibition of the kinase enzymatic activity by the test compound was determined using the following formula: […]
(§12) The IC50 values were determined in a similar way following a serial dilution of the test compound. The percentage of inhibition at each concentration was calculated following the above formula. The IC50 was estimated from the curve of % Inhibition against Concentration in log unit using Prism 5, version 5.01.

The target in test [2] is T2, human Axl (473-end) (Homo sapiens, UniProt P30530).
T2 construct: GST (N); made in house; host or cells: Sf9 insect cells (baculovirus)
T2 sequence (P30530 473-894 limits assumed): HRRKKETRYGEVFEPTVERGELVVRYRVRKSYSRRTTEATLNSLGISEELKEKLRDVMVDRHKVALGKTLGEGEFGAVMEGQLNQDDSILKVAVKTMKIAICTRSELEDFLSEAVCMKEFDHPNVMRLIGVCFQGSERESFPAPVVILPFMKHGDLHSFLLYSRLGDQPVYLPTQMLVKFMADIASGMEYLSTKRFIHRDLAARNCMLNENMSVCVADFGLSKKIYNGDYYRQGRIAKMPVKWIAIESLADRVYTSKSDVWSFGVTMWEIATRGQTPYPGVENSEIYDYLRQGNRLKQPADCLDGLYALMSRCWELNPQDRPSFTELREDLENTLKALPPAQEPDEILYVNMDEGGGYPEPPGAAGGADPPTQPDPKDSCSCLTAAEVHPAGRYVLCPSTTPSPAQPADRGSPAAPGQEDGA
Put plainly: Kinase enzymatic activity assay ([33P]-ATP phosphate transfer), Axl. To be noted: inhibitory activity on Axl; class symbols. How it is done:
as §1, §2, §3, §4, §5, §6, §7, §8, §9, §10, §11, §12

In test [3] the target is T3, human Mer (578-872) (Homo sapiens, UniProt Q12866).
T3 construct: GST (N); made in house; host or cells: Sf9 insect cells (baculovirus)
T3 sequence (Q12866 578-872): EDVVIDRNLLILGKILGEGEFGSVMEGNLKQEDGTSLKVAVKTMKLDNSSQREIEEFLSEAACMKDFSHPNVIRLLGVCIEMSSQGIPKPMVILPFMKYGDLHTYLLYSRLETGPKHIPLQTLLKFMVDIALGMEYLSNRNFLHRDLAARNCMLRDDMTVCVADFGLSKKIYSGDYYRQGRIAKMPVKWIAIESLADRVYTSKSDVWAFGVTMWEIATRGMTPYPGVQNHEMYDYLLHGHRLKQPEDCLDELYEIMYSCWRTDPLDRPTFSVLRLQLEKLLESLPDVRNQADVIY
Kind of test: Kinase enzymatic activity assay ([33P]-ATP phosphate transfer), Mer. To be noted: inhibitory activity on Mer; class symbols. On the procedure: as §1, §2, §3, §4, §5, §6, §7, §8, §9, §10, §11, §12

As for `Nc1ncc(-c2cnn(C3CCOCC3)c2)cc1-c1ncc(-c2ccc(Cl)cc2)o1`, the concentration for half-maximal inhibition (IC50) in test [1], in test [2] and in test [3] was over 10000 nM each time.
In the case of `Nc1ncc(-c2cnn(C3CCNCC3)c2)cc1-c1nnc(C2CCCCC2)o1`, the 50% inhibitory concentration (IC50) in test [1], in test [2] and in test [3] was under 500 nM in each case.
Turning to `CCCCCCCCCCCCN1CCC(n2cc(-c3cnc(N)c(-c4ncc(-c5ccccc5)o4)c3)cn2)CC1`, the IC50 is under 500 nM in test [1], under 500 nM in test [2] and 500 to 1000 nM in test [3].
Turning to `Nc1ncc(-c2cnn(C3CCN(C(=O)c4ccccc4)CC3)c2)cc1-c1ncc(-c2cccc(Cl)c2)o1`, the 50% inhibitory concentration (IC50) in test [1] is under 500 nM; in test [2], under 500 nM; in test [3] it was 1000 to 10000 nM.
With `CC(C)(C)OC(=O)N1CCC(n2cc(-c3cnc(N)c(-c4nnc(-c5ccc(C(C)(C)C)cc5)o4)c3)cn2)CC1`, the results for the IC50 in test [1], in test [2] and in test [3] were 1000 to 10000 nM, 500 to 1000 nM and under 500 nM, respectively.
The like results for `Nc1ncc(-c2cnn(C3CCN(C(=O)Cc4ccccc4)CC3)c2)cc1-c1nc(-c2ccccc2)no1` [1-(4-(4-(6-amino-5-(3-phenyl-1,2,4-oxadiazol-5-yl)pyridin-3-yl)-1H-pyrazol-1-yl)piperidin-1-yl)-2-phenylethanone] were, in that order, 1000 to 10000 nM, 500 to 1000 nM and 1000 to 10000 nM.
The like results for `CC(=O)N1CCC(n2cc(-c3cnc(N)c(-c4nc(-c5ccccc5)no4)c3)cn2)CC1` [1-(4-(4-(6-amino-5-(3-phenyl-1,2,4-oxadiazol-5-yl)pyridin-3-yl)-1H-pyrazol-1-yl)piperidin-1-yl)ethanone] were, in that order, under 500 nM, under 500 nM and under 500 nM.
The like results for `Nc1ncc(-c2cnn(C3CCN(C(=O)Cc4ccccc4)CC3)c2)cc1-c1nnc(-c2c(Cl)cccc2Cl)o1` [1-(4-(4-(6-amino-5-(5-(2,6-dichlorophenyl)-1,3,4-oxadiazol-2-yl)pyridin-3-yl)-1H-pyrazol-1-yl)piperidin-1-yl)-2-phenylethanone] were, in that order, 1000 to 10000 nM, 1000 to 10000 nM and 1000 to 10000 nM.
On to `CC(C)CCC(=O)N1CCC(n2cc(-c3cnc(N)c(-c4nnc(-c5c(Cl)cccc5Cl)o4)c3)cn2)CC1` [1-(4-(4-(6-amino-5-(5-(2,6-dichlorophenyl)-1,3,4-oxadiazol-2-yl)pyridin-3-yl)-1H-pyrazol-1-yl)piperidin-1-yl)-4-methylpentan-1-one], for which the IC50 in test [1] is 500 to 1000 nM; in test [2], under 500 nM; in test [3], under 500 nM.
Take `CC(=O)N1CCC(n2cc(-c3cnc(N)c(-c4nnc(-c5c(Cl)cccc5Cl)o4)c3)cn2)CC1` [1-(4-(4-(6-amino-5-(5-(2,6-dichlorophenyl)-1,3,4-oxadiazol-2-yl)pyridin-3-yl)-1H-pyrazol-1-yl)piperidin-1-yl)ethanone]: the 50% inhibitory concentration (IC50) in test [1], in test [2] and in test [3] was under 500 nM in each case.
Regarding `CC(C)(C)C(=O)N1CCC(n2cc(-c3cnc(N)c(-c4ncc(-c5cccc(Cl)c5)o4)c3)cn2)CC1` [1-(4-(4-(6-amino-5-(5-(3-chlorophenyl)oxazol-2-yl)pyridin-3-yl)-1H-pyrazol-1-yl)piperidin-1-yl)-2,2-dimethylpropan-1-one], the results for the half-inhibitory concentration (IC50) in test [1], in test [2] and in test [3] were under 500 nM, under 500 nM and 1000 to 10000 nM, respectively.
Take `Nc1ncc(-c2cnn(C3CCN(C(=O)Cc4ccccc4)CC3)c2)cc1-c1ncc(-c2cccc(Cl)c2)o1` [1-(4-(4-(6-amino-5-(5-(3-chlorophenyl)oxazol-2-yl)pyridin-3-yl)-1H-pyrazol-1-yl)piperidin-1-yl)-2-phenylethanone]: the concentration for half-maximal inhibition (IC50) in test [1] is under 500 nM; in test [2], under 500 nM; in test [3] it was 1000 to 10000 nM.
For the compound `CC(=O)N1CCC(n2cc(-c3cnc(N)c(-c4ncc(-c5cccc(Cl)c5)o4)c3)cn2)CC1` [1-(4-(4-(6-amino-5-(5-(3-chlorophenyl)oxazol-2-yl)pyridin-3-yl)-1H-pyrazol-1-yl)piperidin-1-yl)ethanone], the half-maximal inhibitory concentration (IC50) in test [1], in test [2] and in test [3] was under 500 nM in each case.
For the compound `Nc1ncc(-c2cnn(C3CCN(C(=O)Cc4ccccc4)CC3)c2)cc1-c1ncc(-c2ccc(Cl)cc2)o1` [1-(4-(4-(6-amino-5-(5-(4-chlorophenyl)oxazol-2-yl)pyridin-3-yl)-1H-pyrazol-1-yl)piperidin-1-yl)-2-phenylethanone], the IC50 is under 500 nM in test [1], under 500 nM in test [2] and 1000 to 10000 nM in test [3].
As for `Nc1ncc(-c2cnn(C3CCNCC3)c2)cc1-c1nnc(-c2cc(F)ccc2F)o1` [3-(5-(2,5-difluorophenyl)-1,3,4-oxadiazol-2-yl)-5-(1-(piperidin-4-yl)-1H-pyrazol-4-yl)pyridin-2-amine], the IC50 in test [1] and in test [2] was under 500 nM throughout.
`Nc1ncc(-c2cnn(C3CCNCC3)c2)cc1-c1nnc(-c2c(Cl)cccc2Cl)o1` [3-(5-(2,6-dichlorophenyl)-1,3,4-oxadiazol-2-yl)-5-(1-(piperidin-4-yl)-1H-pyrazol-4-yl)pyridin-2-amine]: the IC50 in test [1] and in test [2] was under 500 nM in each case.
Consider `CC(C)(C)OC(=O)N1CCC(n2cc(-c3cnc(N)c(-c4nnc(-c5c(Cl)cccc5Cl)o4)c3)cn2)CC1` [tert-butyl 4-(4-(6-amino-5-(5-(2,6-dichlorophenyl)-1,3,4-oxadiazol-2-yl)pyridin-3-yl)-1H-pyrazol-1-yl)piperidine-1-carboxylate], for which the figures for the IC50 in test [1] and in test [2] were 1000 to 10000 nM and 500 to 1000 nM, respectively.
